Each structure is given as a SMILES string.

T1 sequence (P40763 whole entry): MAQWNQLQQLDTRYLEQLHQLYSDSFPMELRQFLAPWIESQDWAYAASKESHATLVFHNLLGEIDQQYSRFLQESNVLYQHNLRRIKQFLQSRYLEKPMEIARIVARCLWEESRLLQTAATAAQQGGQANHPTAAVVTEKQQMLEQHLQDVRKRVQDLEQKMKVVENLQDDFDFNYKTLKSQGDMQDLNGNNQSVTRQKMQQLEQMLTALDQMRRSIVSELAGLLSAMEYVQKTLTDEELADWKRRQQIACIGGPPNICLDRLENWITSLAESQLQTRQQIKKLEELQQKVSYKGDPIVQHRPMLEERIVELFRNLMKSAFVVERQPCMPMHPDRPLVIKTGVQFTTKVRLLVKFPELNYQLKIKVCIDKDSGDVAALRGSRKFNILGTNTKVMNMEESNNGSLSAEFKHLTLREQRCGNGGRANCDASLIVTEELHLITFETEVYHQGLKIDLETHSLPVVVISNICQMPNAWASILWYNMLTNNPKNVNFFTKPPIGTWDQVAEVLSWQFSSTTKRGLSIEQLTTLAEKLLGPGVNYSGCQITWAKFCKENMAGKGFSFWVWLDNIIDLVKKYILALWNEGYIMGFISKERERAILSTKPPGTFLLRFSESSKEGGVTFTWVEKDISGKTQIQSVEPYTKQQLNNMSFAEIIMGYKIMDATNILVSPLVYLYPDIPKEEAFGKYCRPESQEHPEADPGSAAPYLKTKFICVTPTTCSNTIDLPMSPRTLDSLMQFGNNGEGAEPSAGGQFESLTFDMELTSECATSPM

This assay addresses T1, pY705-STAT3 in PBMC (Homo sapiens, UniProt P40763).
T1 construct: Cryopreserved Peripheral Blood Mononuclear Cells (PBMC) are from AllCells; host or cells: cryopreserved PBMC
Kind of assay: MSD-pSTAT-PBMC Assay (pSTAT3, IL-6 stimulated). It is filed as cell-based. Particulars: PBMC, compound 3 hrs, then 10 ng/mL IL-6 for 10 min; Table 115; read-out: STAT3. The method, boiled down:
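MSD electrochemiluminescence read-out: total STAT captured, probed with anti-pY641-STAT6 or anti-pY705-STAT3. Human PBMC, 3 h compound pretreatment, 10 min stimulation (IL-4 1 ng/mL or IL-6 10 ng/mL). Unstimulated signal subtracted, DMSO-normalized, variable-slope IC50.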
For `CCCOC(=O)[C@H](COC)NP(=O)(Cc1ccc2sc(C(=O)N[C@H]3CCC[C@H]4CC[C@@H](C(=O)N5CC(c6cnccc6N(C)C)C5)N4C3=O)cc2c1)Oc1ccccc1` (stereo partly drawn) [Compound 1017, propyl N-(((2-(((3S,6S,9aS)-3-(3-(4-(dimethylamino)pyridin-3-yl)azetidine-1-carbonyl)-5-oxooctahydro-1H-pyrrolo[1,2-a]azepin-6-yl)carbamoyl)benzo [b]thiophen-5-yl)methyl)(phenoxy)phosphoryl)-O-methyl-L-serinate], the IC50 is under 100 nM.
With `CCCOC(=O)[C@H](C)NP(=O)(Oc1ccccc1)[C@H](F)c1ccc2sc(C(=O)N[C@H]3CCC[C@H]4CC[C@@H](C(=O)N5CC(c6cncnc6N6CC[C@H]6COC)C5)N4C3=O)cc2c1` (stereo partly drawn) [Compound 1018, propyl (((S)-fluoro(2-(((3S,6S,9aS)-3-(3-(4-((S)-2-(methoxymethyl)azetidin-1-yl)pyrimidin-5-yl)azetidine-1-carbonyl)-5-oxooctahydro-1H-pyrrolo[1,2-a]azepin-6-yl)carbamoyl)benzo [b]thiophen-5-yl)methyl)(phenoxy)phosphoryl)-L-alaninate] the figure was under 100 nM; with `CCCOC(=O)[C@H](C)NP(=O)(Cc1ccc2sc(C(=O)N[C@H]3CCC[C@H]4CC[C@@H](C(=O)N5CC(c6cncnc6N6CCC6)C5)N4C3=O)cc2c1)Oc1ccccc1` (stereo partly drawn) [Compound 1019, propyl (((2-(((3S,6S,9aS)-3-(3-(4-(azetidin-1-yl)pyrimidin-5-yl)azetidine-1-carbonyl)-5-oxooctahydro-1H-pyrrolo[1,2-a]azepin-6-yl)carbamoyl)benzo [b]thiophen-5-yl)methyl)(phenoxy)phosphoryl)-L-alaninate], under 100 nM.
The value for `CCCOC(=O)[C@H](C)NP(=O)(Oc1ccccc1)C(F)c1ccc2sc(C(=O)N[C@H]3CCCC[C@H]4CC[C@@H](C(=O)N5CC(NCC(F)F)(c6ccccn6)C5)N4C3=O)cc2c1` (stereo partly drawn) [Compound 1020, propyl (((2-(((3S,6S,10aS)-3-(3-((2,2-difluoroethyl)amino)-3-(pyridin-2-yl)azetidine-1-carbonyl)-5-oxodecahydropyrrolo [1,2-a]azocin-6-yl)carbamoyl)benzo [b]thiophen-5-yl)fluoromethyl) (phenoxy)phosphoryl)-L-alaninate] was under 100 nM; that for `CCCOC(=O)[C@H](C)NP(=O)(Cc1ccc2sc(C(=O)N[C@H]3C[C@@H](C)C[C@H]4CC[C@@H](C(=O)N5CC(c6cnccc6N(C)C)C5)N4C3=O)cc2c1)Oc1ccccc1` (stereo partly drawn) [Compound 1021, propyl (((2-(((3S,6S,8R,9aR)-3-(3-(4-(dimethylamino)pyridin-3-yl)azetidine-1-carbonyl)-8-methyl-5-oxooctahydro-1H-pyrrolo[1,2-a]azepin-6-yl)carbamoyl)benzo [b]thiophen-5-yl)methyl)(phenoxy)phosphoryl)-L-alaninate] was under 100 nM.
The value for `CCCOC(=O)[C@H](C)NP(=O)(Oc1ccccc1)[C@@H](F)c1ccc2sc(C(=O)N[C@H]3CCC[C@H]4CC[C@@H](C(=O)N5CC(c6cncc(F)c6N(C)C)C5)N4C3=O)cc2c1` (stereo partly drawn) [Compound 1022, propyl (((R)-(2-(((3S,6S,9aS)-3-(3-(4-(dimethylamino)-5-fluoropyridin-3-yl)azetidine-1-carbonyl)-5-oxooctahydro-1H-pyrrolo[1,2-a]azepin-6-yl)carbamoyl)benzo [b]thiophen-5-yl)fluoromethyl) (phenoxy)phosphoryl)-L-alaninate] was under 100 nM; that for `CCCOC(=O)[C@H](C)NP(=O)(Oc1ccccc1)[C@H](F)c1ccc2sc(C(=O)N[C@H]3CCC[C@H]4CC[C@@H](C(=O)N5CC(c6cnccc6N6CCC6)C5)N4C3=O)cc2c1` (stereo partly drawn) [Compound 1024, propyl (((S)-(2-(((3S,6S,9aS)-3-(3-(4-(azetidin-1-yl)pyridin-3-yl)azetidine-1-carbonyl)-5-oxooctahydro-1H-pyrrolo[1,2-a]azepin-6-yl)carbamoyl)benzo [b]thiophen-5-yl)fluoromethyl) (phenoxy)phosphoryl)-L-alaninate] was 100 to 1000 nM; that for `CCCOC(=O)[C@H](C)NP(=O)(Cc1ccc2sc(C(=O)N[C@H]3CCC[C@H]4CC[C@@H](C(=O)N5CC(c6cnccc6N(C)C)C5)N4C3=O)cc2c1)OCC(F)(F)F` (stereo partly drawn) [Compound 1025, propyl (((2-(((3S,6S,9aS)-3-(3-(4-(dimethylamino)pyridin-3-yl)azetidine-1-carbonyl)-5-oxooctahydro-1H-pyrrolo[1,2-a]azepin-6-yl)carbamoyl)benzo [b]thiophen-5-yl)methyl)(2,2,2-trifluoroethoxy)phosphoryl)-L-alaninate] was under 100 nM.
Turning to `CCCOC(=O)[C@H](C)NP(=O)(Oc1ccccc1)[C@@H](F)c1ccc2sc(C(=O)N[C@H]3CCC[C@H]4CC[C@@H](C(=O)N5CC(c6cncc(F)c6NC)C5)N4C3=O)cc2c1` (stereo partly drawn) [Compound 1026, propyl (((R)-fluoro(2-(((3S,6S,9aS)-3-(3-(5-fluoro-4-(methylamino)pyridin-3-yl)azetidine-1-carbonyl)-5-oxooctahydro-1H-pyrrolo[1,2-a]azepin-6-yl)carbamoyl)benzo [b]thiophen-5-yl)methyl)(phenoxy)phosphoryl)-L-alaninate], the IC50 was under 100 nM.
With `CCCOC(=O)[C@H](C)NP(=O)(Oc1ccccc1)[C@@H](F)c1ccc2sc(C(=O)N[C@H]3CCC[C@H]4CC[C@@H](C(=O)N5CC(c6cnccc6N6CCC6)C5)N4C3=O)cc2c1` (stereo partly drawn) [Compound 1028, propyl (((R)-(2-(((3S,6S,9aS)-3-(3-(4-(azetidin-1-yl)pyridin-3-yl)azetidine-1-carbonyl)-5-oxooctahydro-1H-pyrrolo[1,2-a]azepin-6-yl)carbamoyl)benzo [b]thiophen-5-yl)fluoromethyl) (phenoxy)phosphoryl)-L-alaninate] the figure was 100 to 1000 nM; with `CCCOC(=O)[C@H](C)NP(=O)(Oc1ccccc1)[C@@H](F)c1ccc2sc(C(=O)N[C@H]3C[C@@H](C)C[C@H]4CC[C@@H](C(=O)N5CC(c6cnccc6N(C)C)C5)N4C3=O)cc2c1` (stereo partly drawn) [Compound 1029, propyl (((R)-(2-(((3S,6S,8R,9aR)-3-(3-(4-(dimethylamino)pyridin-3-yl)azetidine-1-carbonyl)-8-methyl-5-oxooctahydro-1H-pyrrolo[1,2-a]azepin-6-yl)carbamoyl)benzo [b]thiophen-5-yl)fluoromethyl) (phenoxy)phosphoryl)-L-alaninate], under 100 nM; with `CCCOC(=O)[C@H](C)NP(=O)(Oc1ccccc1)[C@@H](F)c1ccc2sc(C(=O)N[C@H]3CCC[C@H]4CC[C@@H](C(=O)N[C@H]5CN(c6ncc[nH]6)C[C@@H]5F)N4C3=O)cc2c1` (stereo partly drawn) [Compound 1030, propyl (((R)-fluoro(2-(((3S,6S,9aS)-3-(((3S,4S)-4-fluoro-1-(1H-imidazol-2-yl)pyrrolidin-3-yl)carbamoyl)-5-oxooctahydro-1H-pyrrolo[1,2-a]azepin-6-yl)carbamoyl)benzo [b]thiophen-5-yl)methyl)(phenoxy)phosphoryl)-L-alaninate], over 3000 nM.

The values are drawn from patent publication US20250215029A1 (Recludix Pharma, Inc., priority 2022, published 2025).
